For data set [1], the system named is macrophages. The data set can be described thus: zebrafish tail fin wounding assay, macrophage migration to wounded site. It is filed as in vivo, zebrafish (Danio rerio). The settings on record: Example 3, ginsenoside Re. How it is done:
(§1) Zebrafish (Danio rerio) were maintained and handled according to the guidelines from the Zebrafish Model Organism Database (http://zfin.org) and in compliance with the directives of the local animal welfare committee of Leiden University. Zebrafish were exposed to a 14 h light and 10 h dark cycle to maintain circadian rhythmicity. Fertilization was performed by natural spawning at the beginning of the light period. […] The following zebrafish lines were used in this study: the double transgenic line Tg(mpx:GFP^i114/mpeg1:mCherry^umsF001), in which neutrophils and macrophages are fluorescently labeled (green and red, respectively), and the Tg(9xGCRE-HSV.UI23:EGFP)^ia20 reporter line, in which the gene encoding enhanced green fluorescent protein (EGFP) is driven by a GRE-containing promoter.
(§2) For the tail fin wounding experiments, 20 larvae at 2 or 3 days post-fertilization (dpf) were utilized for each experimental group. For wounding, larvae were anesthetized in egg water containing 0.02% buffered aminobenzoic acid ethyl ester (tricaine; Sigma-Aldrich). Larvae were placed on Petri dishes coated with 2% agarose under a Leica M165C stereomicroscope (Leica Microsystems, Wetzlar, Germany), and the tails were partly amputated using a 1-mm sapphire blade (World Precision Instruments, Sarasota, FL, USA). For quantification of leukocyte migration, larvae were fixed overnight in 4% paraformaldehyde (PFA) at 4° C. The next day, fixed larvae were washed with Phosphate Buffered Saline (PBS) containing 0.1% Tween 20, and stored at 4° C. until imaging.
(§3) The macrophages were detected based on their red (mCherry) fluorescence, and neutrophils based on their green (EGFP) fluorescence. To quantify the number of macrophages and neutrophils recruited to the wounded area, the cells in a defined area of the tail were determined by blinded manual counting.
(§4) Zebrafish (Danio rerio) were maintained and handled according to the guidelines from the Zebrafish Model Organism Database (http://zfin.org) and in compliance with the directives of the local animal welfare committee of Leiden University. Zebrafish were exposed to a 14 h light and 10 h dark cycle to maintain circadian rhythmicity. Fertilization was performed by natural spawning at the beginning of the light period. […] The following zebrafish lines were used in this study: AB/TL wild type, the transgenic lines Tg(mpx:GFP^i114/mpeg1:mCherry^umsF001)[14, 15], and Tg(9xGCRE-HSV.UI23:EGFPia^20)[16], and the mutant lines grs357[20].
(§5) For the tail fin wounding experiments, 2- or 3-days post-fertilization (dpf) larvae were anesthetized in egg water containing 0.02% buffered aminobenzoic acid ethyl ester (tricaine; Sigma-Aldrich). Larvae were placed in Petri dishes coated with 2% agarose under a Leica M165C stereomicroscope (Leica Microsystems, Wetzlar, Germany), and the tails were partly amputated using a 1-mm sapphire blade (World Precision Instruments, Sarasota, FL, USA).
(§6) In experiments in which the leukocyte migration was used as a readout, larvae were subjected to treatment with chemicals as indicated, starting at 2 h before the amputation (pretreatment), and treatment was continued for 4 h after the tail fin amputation (20 larvae per group, unless indicated otherwise). In some experiments, a 24 h treatment with MZ31 (10 μM) was started at 2 dpf, and these treatments were continued during the pretreatment and treatment with the other chemicals. At 4 h after amputation, the larvae were fixed in 4% paraformaldehyde (PFA) overnight at 4° C. The next day, fixed larvae were washed with Phosphate Buffered Saline (PBS) containing 0.1% Tween 20 and stored at 4° C. until imaging. […] The macrophages were detected based on red (mCherry) fluorescence and neutrophils on their green (EGFP) fluorescence. To quantify the number of macrophages and neutrophils recruited to the wounded area, the cells in a defined area of the tail were determined by blinded manual counting. […]

In data set [2] the test system is zebrafish larvae. Kind of data set: tail fin regeneration assay.
Data set [3] is described as follows: micelle formation from dried film dissolved in H2O; appearance of solution. It is filed as physicochemical. The procedure: Dried leaves of the plant Panax ginseng (8 gram) were boiled in water (350 mL), filtrated and loaded on a 20 mL Bed Volume (BV) column filled with macroporous resin (type D101). After extensively washing with water (15 BV's) the ginsenosides were eluted with 60% EtOH. The ginsenoside solution was decolorized by passing through a 20 mL BV column filled with type D941 macroporous resin. Subsequently, the solvents were slowly evaporated, after at 80° C. under reduced pressure (375 hPa) using a glass vials and a evaporator (P12-Multivapor, Buchi). After evaporation of both the ethanol and the water, a transparent film was formed on the wall of the glass vial.
In parallel 100 mg pure Re was solved in 10 mL of ethanol. […] The ethanol was slowly removed at 80° C. under low pressure (375 hPa) using a glass vials and a evaporator (P12-Multivapor). Again a clear film was formed on the wall of the glass tubes.
Micelle formation of ginsenoside extract obtained from dried leaves as described above was repeated in the presence of 0.6 mg of dexamethasone. Dexamethasone was first dissolved in ethanol in a concentration of 10 mg/mL and 0.6 mg of dexamethasone was added to the ethanolic ginsenoside fraction obtained after purification and decolorization by D101 and D941 resins respectively, using the method described herein above. The content of Re and Rg1 in this ethanolic ginsenoside fraction was 4 mg/10 mL as determined by HPLC (see below). The molecular ratio between dexamethasone and Re/Rel in this solution was around 5:70. The ethanol fraction was slowly removed at 80° C. under reduced pressure (375 hPa) using a glass vials and a evaporator to obtain a film. […] The content and the presence of micelles were assessed by size exclusion chromatography as described below.

Data set [4] concerns zebrafish larvae. Kind of data set: whole-body cortisol measurement of zebrafish larvae (ELISA). The settings on record: Example 3, ginsenoside Re.
Data set [5] relates to zebrafish larvae. Kind of data set: whole-body glucose measurement of zebrafish larvae. The settings on record: Example 3, ginsenoside Re.
For data set [6], the system named is neutrophils. Kind of data set: zebrafish tail fin wounding assay, neutrophil migration to wounded site. It is filed as in vivo, zebrafish (Danio rerio). The procedure:
as §1, §2, §3, §4, §5, §6

Data set [7] is described as follows: size exclusion chromatography of micelles (Sephadex G50) with HPLC. It is filed as physicochemical. How it is done:
The size and content of the micelles were determined by means of size exclusion chromatography. 1 mL of aqueous ginsenoside/dexamethasone solution was loaded on a Sephadex G50 size exclusion column (size 25×1 cm) and eluted under gravity with water. Blue dextran (MW=2.000.000 Da) and erythrosine (880 Da) were used as molecular weight markers. Fractions of 2.0 mL were collected. The fractions were dried and dissolved in 70% methanol and the ginsenoside content was analyzed by means of HPLC. HPLC conditions were: • HPLC equipment: HPLC/DAD Aligent 1200 series, a quaternary pump connected to a DAD and autosampler. • Stationary phase: Kinetex 2.6 μm, C18 100 Å, 100×4.6 mm-Phenomenex, USA • Mobile phase: • A: 0.03% o-phosphoric acid (H3PO4) in Ultrapure H2O • B: 0.03% o-phosphoric acid (H3PO4) in Acetonitrile (LiChrosolv, Millipore-Merck, Darmstadt, Germany; quality far UV) • Gradient:
• Conditions • Flow: 0.8 ml/min • Injection volume: 20 μL • Column temperature: 35° C. • Detection wavelength: 203 and 241 nm

For data set [8] the following is noted: rule of thumb, literature table; cited from earlier work.
Data set [9] relates to gr. Kind of data set: Gr transactivation activity in Tg(9xGCRE-HSV.UI23:EGFP)ia20 reporter larvae. It is filed as in vivo, zebrafish (Danio rerio). The settings on record: 24 h from 2 dpf; 10 μM GC, 50 μM Rg1 or combination. How it is done:
To investigate the Gr transactivation activity in zebrafish larvae, the Tg(9xGCRE-HSV.UI23:EGFP)^ia20 reporter line was used, which expresses enhanced green fluorescent protein (EGFP) under the control of a promoter containing an array of nine GREs. […] The integrated intensity of the EGFP signal in the larvae was determined using ImageJ software.
To investigate the Gr transactivation activity in zebrafish larvae, the Tg(9xGCRE-HSV.UI23:EGFP^ia20) reporter line was used, which expresses enhanced green fluorescent protein (EGFP) under the control of a promoter containing an array of nine GREs. […] The integrated intensity of the EGFP signal in the larvae was determined using ImageJ software.

The source of these data is patent US20260306525A1, “COMBINATION THERAPY GLUCOCORTICOIDS AND GINSENOSIDE” (FYTAGORAS B.V., priority 2023, published 2026).

Structures are written as SMILES.

Regarding `CC(C)=CCC[C@](C)(O[C@@H]1O[C@H](CO)[C@@H](O)[C@H](O)[C@H]1O)[C@H]1CC[C@]2(C)[C@@H]1[C@H](O)C[C@@H]1[C@@]3(C)CC[C@H](O)C(C)(C)[C@@H]3[C@@H](O[C@@H]3O[C@H](CO)[C@@H](O)[C@H](O)[C@H]3O[C@@H]3O[C@@H](C)[C@H](O)[C@@H](O)[C@H]3O)C[C@]12C` [Re, (3β, 6α, 12β)-20-(β-D-Glucopyranosyloxy)-3, 12-dihydroxydammar-24-en-6-yl 2-O-(6-deoxy-α-L-mannopyranosyl)-β-D-glucopyranoside], the migration of macrophages entry in data set [1] is reported as “did not inhibit the migration of macrophages”. Moreover, the regenerative tissue entry in data set [2] (Example 3, ginsenoside Re) is listed as “did not affect regenerative tissue”. Moreover, the “appearance of solution in ethanol” value in [3] (100 mg in 10 mL of ethanol) is recorded as “clear solution”. Besides, in data set [3] (film from ethanol (or 60% EtOH) evaporation, dissolved in H2O), the “appearance of solution in H2O after dissolving the film” value was “cloudy solution”. In data set [3] (microscopic determination, 10 mL H2O), the “micelle formation / crystallization in H2O” value is “crystallization of Re (FIG. 12B) and no micelles were obtained”. Besides, the whole body cortisol result in [4] is recorded as “no side effects could be observed”. In addition, in data set [5], the whole body glucose result is given as “no side effects could be observed”. Moreover, the “migration of neutrophils to the wounded tail area” value in data set [6] (Example 3, ginsenoside Re) was “inhibited the migration of neutrophils to the wounded tail area”.
Turning to `C[C@@H]1C[C@H]2[C@@H]3CCC4=CC(=O)C=C[C@]4(C)[C@@]3(F)[C@@H](O)C[C@]2(C)[C@@]1(O)C(=O)CO` [dexamethasone, reference compound], the “detection of free dexamethasone in fractions after 55 mL” value in data set [7] is on record as “could not be detected in these fractions”. Moreover, the “co-elution of dexamethasone with micelles / encapsulation” value in data set [7] (Sephadex G50 fractions) is “co-eluted with the Re and Rg1 containing micelles”. The “regeneration of amputated tail fin (length of regenerated tissue at 5 dpf)” value in [2] (0-5 dpf, 10 μM beclomethasone or dexamethasone, 50 μM Rg1 or combinations, amputation at 2 dpf) is “dexamethasone-induced inhibition of the regenerative process”. For the same compound, the “dose equivalent to a 5 mg prednisone dose” value in [8] is on record as “about 0.75 mg”. For the same compound, in [9], the “relative EGFP intensity (Gr transactivation)” value is “significantly increased the relative EGFP intensity”. In addition, the “neutrophil migration to the wounded site” value in data set [6] (10 μM dexamethasone) is “did not affect neutrophil migration”.
